The subject of one data set is vaginal muscle. The data set can be described thus: Rabbit vaginal contraction in organ bath (force transducer). Format: cell-based, New Zealand female rabbit. On the procedure: The vagina of 12-week-old New Zealand female rabbit was removed, exiced to 1 cm length and immersed in 10 ml of capacity organ bath connected to an external reservoir of Krebs-Henseleit in constant temperature of 37° C. The solution was oxygenated (95%O2/[…]). The effect of VIP and SNV on vaginal contraction was measured by attaching the vaginal muscle to a force transducer.

For a further data set, the system named is cGMP formation. As to conditions: versus VIP; cited from earlier work.
The conditions of data set [1]: cited from earlier work.
Data set [2] relates to uterine smooth muscle activity and vaginal blood flow. As to conditions: systemic administration to females; cited from earlier work.
A further data set relates to penile erection. The settings on record: in the male; cited from earlier work.

Entries after “also recorded” stand apart in the source; their conditions may differ. Where no end group is shown, it is not given here.

For the substance Stearoyl-norleucine^17-VIP [SNV], the “effect on contraction force (inotropic effect)” value in the data set on vaginal muscle (0.3 μM peptide, 0.5 μM phenylephrine, FIG. 2) was “reduced the contraction force”. In the data set with vaginal muscle (0.3 μM peptide, contraction stimulated by 0.5 μM phenylephrine, FIG. 2), the “effect on rate of vaginal contraction” value is listed as “attenuated the rate of vaginal contraction”. The “effect on vaginal contraction at high concentration” value in the data set with vaginal muscle (1.5 μM peptide (b76 prints 1.5 M), contraction stimulated by 0.5 μM phenylephrine, FIG. 3) is reported as “blocked vaginal contraction; also recorded: neutralized vaginal contraction”. Moreover, the “potency in enhancing cGMP formation relative to VIP” value in the data set on cGMP formation is listed as 1000 fold. Besides, the bioavailability entry in data set [1] was “increased stability and bioavailability”.

In the case of “vasoactive intestinal peptide (HSDAVFTDNYTRLRKQMAVKKYLNSILN; ends and bridges not checked; UniProt P01282 125-152, looked up) [VIP]”, the “effect on vaginal contraction” value in the data set on vaginal muscle (0.3 μM peptide, preliminary results, FIG. 1) is “neutralized vaginal contraction”. Besides, in data set [2], the “uterine smooth muscle activity” value is given as “decrease uterine smooth muscle activity” and the vaginal blood flow result was “increase vaginal blood flow”. The penile erection result in the data set on penile erection is reported as “induces penile erection”.

Source of the values: patent publication US20050075284A1, “Pharmaceutical compositions comprising vip-related peptides for the treatment of sexual disorders” (priority 2001, published 2005).
